We go through twelve compounds from PubChem BioAssay (NCI).

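Results reflect a 48-hour exposure of cells in 96-well plates to compound at five concentrations. Here, GI50 denotes the concentration required for 50% inhibition of growth. TGI marks complete inhibition of growth.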

Among the test systems are UACC-257 melanoma; SK-OV-3 ovarian; HOP-62 NSCLC; MDA-MB-231 breast; 786-0 renal; MOLT-4 leukemia; NCI-H226 lung; UACC-62 melanoma; NCI-H460 lung; COLO 205 colon.
What all share (experiment): NCI anticancer screen, dose series, 48 h

As to `CC1(N)CCN(c2cccnc2NC(=O)c2nc(-c3ncccc3C(F)(F)F)cnc2N)CC1`, the GI50 in the assay on UACC-257 melanoma is 18.1 µM; in the assay on SK-OV-3 ovarian it was 7.86 µM; with HOP-62 NSCLC it was 37.5 µM; in the assay on MDA-MB-231 breast, 27.8 µM; in the assay with 786-0 renal it was 15.3 µM; with MOLT-4 leukemia, 13.9 µM. The GI50 is 35.9 µM in the assay on NCI-H226 lung, 61.2 µM in the assay with UACC-62 melanoma, 41.1 µM in the assay on NCI-H460 lung and 5.48 µM in the assay on COLO 205 colon. Further, the TGI was 34.1 µM in the assay with UACC-257 melanoma; 73.8 µM in the assay with SK-OV-3 ovarian; > 100 µM with HOP-62 NSCLC; > 100 µM in the assay on MDA-MB-231 breast; > 100 µM with 786-0 renal; 69.7 µM with MOLT-4 leukemia. Further, the TGI is > 100 µM in the assay with NCI-H226 lung, > 100 µM in the assay on UACC-62 melanoma, > 100 µM in the assay on NCI-H460 lung and 36.6 µM in the assay with COLO 205 colon.
With `COc1cc2c3c(n(CCCCN)c(=O)c2cc1OC)-c1cc2c(cc1C3=O)OCO2`, the GI50 was 3.35 µM with UACC-257 melanoma; 1.23 µM in the assay on SK-OV-3 ovarian; 0.322 µM with HOP-62 NSCLC; 0.442 µM in the assay with MDA-MB-231 breast; 0.172 µM in the assay with 786-0 renal; 0.114 µM in the assay with MOLT-4 leukemia. Moreover, the GI50 is 0.492 µM in the assay on NCI-H226 lung, 0.216 µM in the assay on UACC-62 melanoma, 0.114 µM in the assay on NCI-H460 lung and 1.04 µM in the assay with COLO 205 colon. In addition, the TGI in the assay with UACC-257 melanoma turned out to be 25 µM; in the assay with SK-OV-3 ovarian, 9.41 µM; in the assay on HOP-62 NSCLC it was 1.21 µM; in the assay on MDA-MB-231 breast, 1.56 µM; in the assay with 786-0 renal it was 0.889 µM; in the assay on MOLT-4 leukemia, 2.95 µM. Further, the TGI in the assay with NCI-H226 lung was determined as 1.58 µM; with UACC-62 melanoma, 1.04 µM; in the assay on NCI-H460 lung it was 2.07 µM; in the assay with COLO 205 colon, 6.17 µM.
With `Cc1ccc(-c2nc(C#N)c(S(=O)(=O)n3nc(C)cc3N)o2)cc1`, the GI50 in the assay on UACC-257 melanoma was 16.5 µM; with SK-OV-3 ovarian, 27.5 µM; in the assay with HOP-62 NSCLC, 17.7 µM; with MDA-MB-231 breast it was 2.42 µM; in the assay on 786-0 renal it was 2.35 µM; in the assay with MOLT-4 leukemia, 1.97 µM. Besides, the GI50 in the assay on NCI-H226 lung was 15.6 µM; in the assay on UACC-62 melanoma, 6.32 µM; in the assay with NCI-H460 lung, 19.5 µM; in the assay on COLO 205 colon, 2.15 µM. Further, the TGI with UACC-257 melanoma is 30.1 µM; in the assay on SK-OV-3 ovarian, 71.1 µM; in the assay with HOP-62 NSCLC, 35.1 µM; in the assay with MDA-MB-231 breast, 6.31 µM; with 786-0 renal it was 6.35 µM; with MOLT-4 leukemia, 4.77 µM. In addition, the TGI is 41.4 µM in the assay on NCI-H226 lung, 19.8 µM in the assay on UACC-62 melanoma, 41.5 µM in the assay on NCI-H460 lung and 4.19 µM with COLO 205 colon.
`O=C(N/C(=C/c1ccc(Cl)cc1Cl)c1nc2ccccc2s1)c1ccccc1`: the TGI with UACC-257 melanoma was 31.6 µM; in the assay with SK-OV-3 ovarian, 79.3 µM; with HOP-62 NSCLC, 26.7 µM; with MDA-MB-231 breast, 22.3 µM; with 786-0 renal, 35.4 µM; with MOLT-4 leukemia it was > 100 µM. The TGI stood at 27.7 µM in the assay on NCI-H226 lung, 30.2 µM with UACC-62 melanoma, 52.2 µM in the assay with NCI-H460 lung and 37.2 µM with COLO 205 colon.
As to `CCOC(=O)c1cc2c(n1Cc1cccc(OC)c1)-c1oncc1CCC2`, the GI50 is 3.51 µM with UACC-257 melanoma; 3.48 µM with SK-OV-3 ovarian; 3.54 µM in the assay on HOP-62 NSCLC; 4.06 µM with MDA-MB-231 breast; 6.65 µM in the assay on 786-0 renal; 3.18 µM in the assay with MOLT-4 leukemia. In addition, the GI50 in the assay on NCI-H226 lung was 32.1 µM; with UACC-62 melanoma it was 0.712 µM; in the assay with NCI-H460 lung, 3.52 µM; in the assay with COLO 205 colon, 0.78 µM. In addition, the TGI in the assay on UACC-257 melanoma, with SK-OV-3 ovarian, with HOP-62 NSCLC, in the assay on MDA-MB-231 breast, with 786-0 renal and in the assay on MOLT-4 leukemia was > 100 µM in each case. Besides, the TGI was > 100 µM in the assay on NCI-H226 lung, > 100 µM in the assay with UACC-62 melanoma, > 100 µM with NCI-H460 lung and 23.8 µM in the assay with COLO 205 colon.
For the compound `CC1CC2OC(=O)C(C)C2CC2(C)C(OC3OC(CO)C(O)C(O)C3O)OCCC12` (stereo unspecified), the TGI in the assay on UACC-257 melanoma, in the assay on SK-OV-3 ovarian, in the assay with HOP-62 NSCLC, with MDA-MB-231 breast, with 786-0 renal and in the assay with MOLT-4 leukemia was > 100 µM in each case. Besides, the TGI in the assay on NCI-H226 lung was > 100 µM; in the assay on UACC-62 melanoma it was 30.6 µM; with NCI-H460 lung it was > 100 µM; in the assay on COLO 205 colon it was > 100 µM.
As for `CCCCC[C@H]1C/C=C2/C(=O)C=C[C@@H]2C/C=C\CCCC(=O)O[C@@H](CCCCC)C/C=C2/C(=O)C=C[C@@H]2C/C=C\CCCC(=O)O1`, the GI50 in the assay with UACC-257 melanoma is 0.531 µM; with SK-OV-3 ovarian it was 0.824 µM; with HOP-62 NSCLC it was 0.536 µM; in the assay with MDA-MB-231 breast, 0.132 µM; in the assay on 786-0 renal, 0.41 µM; in the assay on MOLT-4 leukemia it was 0.0828 µM. Besides, the GI50 with NCI-H226 lung is 0.746 µM; in the assay with UACC-62 melanoma it was 0.253 µM; with NCI-H460 lung, 0.606 µM; in the assay on COLO 205 colon, 0.25 µM. Besides, the TGI in the assay with UACC-257 melanoma worked out at 1.3 µM; in the assay on SK-OV-3 ovarian it was 2.39 µM; in the assay on HOP-62 NSCLC it was 1.29 µM; in the assay with MDA-MB-231 breast it was 2.17 µM; with 786-0 renal it was 0.811 µM; in the assay on MOLT-4 leukemia, 0.898 µM. For the same compound, the TGI with NCI-H226 lung stood at 1.64 µM; in the assay on UACC-62 melanoma it was 0.783 µM; in the assay with NCI-H460 lung, 1.48 µM; in the assay on COLO 205 colon, 0.671 µM.
Regarding `COC(=O)[C@@]12OC[C@]34[C@H]([C@@H](O)[C@@H]1O)[C@@]1(C)[C@H](O)C(=O)C=C(C)[C@@H]1C[C@H]3OC(=O)C(OC(C)=O)[C@@H]24` (stereo partly specified), the GI50 in the assay on UACC-257 melanoma was 0.0668 µM; with SK-OV-3 ovarian it was 0.0522 µM; in the assay with HOP-62 NSCLC, 0.0294 µM; in the assay on MDA-MB-231 breast, 0.0979 µM; in the assay with 786-0 renal, 0.026 µM; in the assay with MOLT-4 leukemia it was < 0.0145 µM. In addition, the GI50 in the assay on NCI-H226 lung was 0.025 µM; with UACC-62 melanoma, 0.0245 µM; in the assay on NCI-H460 lung, 0.0183 µM; in the assay on COLO 205 colon, 0.0408 µM. Besides, the TGI with UACC-257 melanoma was 0.428 µM; in the assay with SK-OV-3 ovarian, 1.12 µM; in the assay on HOP-62 NSCLC, 0.156 µM; in the assay on MDA-MB-231 breast, 0.366 µM; in the assay on 786-0 renal, 0.0889 µM; in the assay on MOLT-4 leukemia it was 0.0487 µM. The TGI in the assay on NCI-H226 lung was determined as 0.0992 µM; in the assay on UACC-62 melanoma, 0.142 µM; in the assay with NCI-H460 lung it was 0.0524 µM; in the assay on COLO 205 colon, 0.178 µM.
As for `COc1cccc(C2=C(c3c(C)n(C)c4ccccc34)C(=O)NC2=O)c1`, the GI50 with UACC-257 melanoma was > 25 µM; in the assay with SK-OV-3 ovarian it was > 25 µM; in the assay on HOP-62 NSCLC, > 25 µM; in the assay on MDA-MB-231 breast, > 25 µM; in the assay with 786-0 renal, > 25 µM; in the assay on MOLT-4 leukemia it was 16.1 µM. In addition, the GI50 with NCI-H226 lung was > 19.1 µM; in the assay with UACC-62 melanoma it was 12.3 µM; in the assay on NCI-H460 lung, > 25 µM; with COLO 205 colon, 14.8 µM. In addition, the TGI in the assay on UACC-257 melanoma, in the assay with SK-OV-3 ovarian, with HOP-62 NSCLC, in the assay on MDA-MB-231 breast, in the assay on 786-0 renal and in the assay with MOLT-4 leukemia was > 25 µM throughout. The TGI in the assay on NCI-H226 lung, with UACC-62 melanoma, with NCI-H460 lung and with COLO 205 colon was > 25 µM throughout.
On to `C[C@]12CCc3sc(NCCc4ccccc4)nc3C1=CC[C@@H]1[C@@H]2CC[C@]2(C)C(=O)CC[C@@H]12`, for which the GI50 in the assay on UACC-257 melanoma is 4.92 µM; in the assay on SK-OV-3 ovarian, > 100 µM; in the assay on HOP-62 NSCLC it was 8.52 µM; with MDA-MB-231 breast, 3.4 µM; in the assay with 786-0 renal it was 2.82 µM; with MOLT-4 leukemia, 2.58 µM. The GI50 in the assay with NCI-H226 lung was 2.42 µM; in the assay on UACC-62 melanoma, 2.67 µM; in the assay with NCI-H460 lung, 4.47 µM; in the assay with COLO 205 colon, 3.03 µM. The TGI in the assay on UACC-257 melanoma is 79.8 µM; in the assay with SK-OV-3 ovarian, > 100 µM; in the assay with HOP-62 NSCLC, > 100 µM; in the assay on MDA-MB-231 breast, 21.4 µM; in the assay on 786-0 renal, 9.61 µM; in the assay with MOLT-4 leukemia, > 100 µM. For the same compound, the TGI with NCI-H226 lung is 6.57 µM; with UACC-62 melanoma it was 10.6 µM; in the assay on NCI-H460 lung it was > 100 µM; with COLO 205 colon, 8.77 µM.
Take `COc1ccc(C2CC(C)(O)Oc3cc4c(cc32)OCO4)cc1` (stereo unspecified): the TGI in the assay on UACC-257 melanoma was > 100 µM; in the assay on SK-OV-3 ovarian, > 100 µM; with HOP-62 NSCLC, > 100 µM; with MDA-MB-231 breast, > 100 µM; in the assay on 786-0 renal, > 100 µM; with MOLT-4 leukemia, 88.6 µM. Also, the TGI is > 100 µM with NCI-H226 lung, > 100 µM in the assay on UACC-62 melanoma, > 100 µM with NCI-H460 lung and 46 µM in the assay with COLO 205 colon. For the same compound, the GI50 with SK-OV-3 ovarian is 43.2 µM.
With `NC(=O)c1ccc(I)c(N=O)c1`, the GI50 was 35.3 µM with UACC-257 melanoma; > 100 µM with SK-OV-3 ovarian; 57.6 µM with HOP-62 NSCLC; 35.5 µM in the assay with MDA-MB-231 breast; 61.8 µM in the assay on 786-0 renal; 36.5 µM with MOLT-4 leukemia. For the same compound, the GI50 is 58.8 µM in the assay with NCI-H226 lung, 40.5 µM in the assay on UACC-62 melanoma, 62.6 µM in the assay on NCI-H460 lung and 21.7 µM in the assay on COLO 205 colon. For the same compound, the TGI in the assay on UACC-257 melanoma, with SK-OV-3 ovarian, in the assay with HOP-62 NSCLC, in the assay on MDA-MB-231 breast, in the assay on 786-0 renal and in the assay on MOLT-4 leukemia was > 100 µM in each case. The TGI with NCI-H226 lung is > 100 µM; in the assay with UACC-62 melanoma, > 100 µM; in the assay on NCI-H460 lung, > 100 µM; in the assay on COLO 205 colon it was 44.3 µM.
